Tested on: ASCT2 mRNA
Assay: ASCT2 gene expression (RT-qPCR) after ASCT2 gene silencing in human colon cancer HTC-116 cells
Format: cell-based
Settings: treatment 6 h
Procedure: SK-HEP-1, T24, HT-1080 and HCT-116 cell lines were maintained in a humidified atmosphere of 5% CO2 at 37° C. SK-HEP-1 cells were grown in RPMI-1640 (Sigma, St. Louis, Mo.) supplemented with 20% fetal bovine serum (FBS) (Gibco, UK), 100 U/mL penicillin G, 0.25 μg/mL amphotericin B, 100 μg/mL streptomycin (Gibco, UK), 25 mM sodium bicarbonate (Merck, Germany) and 25 mM N-2-hydroxyethylpiperazine-N′-2-ethanosulfonic acid (HEPES) (Sigma, St. Louis, Mo.). T24 and HT-1080 cells were grown, respectively, in Dulbecco's Modified Eagle's Medium (DMEM)—high glucose (Sigma, St. Louis, Mo.) and DMEM—low glucose (Sigma, St. Louis, Mo.), supplemented with 10% FBS (Gibco, UK), 100 U/mL penicillin G, 0.25 μg/mL amphotericin B, 100 μg/mL streptomycin (Gibco, UK), 25 mM sodium bicarbonate (Merck, Germany) and 25 mM HEPES (Sigma, St. Louis, Mo.). HCT-116 cells were grown in McCoy's 5A (Sigma, St. Louis, Mo.) supplemented with 10% FBS (Gibco, UK), 100 U/mL penicillin G, 0.25 μg/mL amphotericin B, 100 μg/mL streptomycin (Gibco, UK), 25 mM sodium bicarbonate (Merck, Germany) and 25 mM HEPES (Sigma, St. Louis, Mo.). For all cell lines the medium was changed every 2 days, and cells reached confluence 3-4 days after initial seeding. For subculturing, cells were dissociated with 0.25% trypsin-ethylenediaminetetraacetic acid (EDTA) (Sigma, St. Louis, Mo.), split 1:15 or 1:20 and subcultured in a 21-cm^2 growth area (Sarstedt, Germany).
Total RNA was isolated and purified using the SV Total RNA Isolation System (Promega, USA) according to manufacturer's instructions. RNA quality and concentration were verified in the NanoDrop ND1000 Spectrophotometer (Thermo Scientific, USA), and RNA integrity and genomic DNA contamination were evaluated by agarose gel electrophoresis. Total RNA (1 μg) was converted into cDNA using the Maxima Scientific First Strand cDNA Synthesis Kit for RT-qPCR (Thermo Scientific, USA), according to instructions. The following protocol was used: 1st step, 10 min at 25° C.; 2nd step, 15 min at 50° C.; 3rd step, 5 min at 85° C. cDNA was used for qPCR analysis using Maxima SYBR Green qPCR Master Mix (Thermo Scientific, USA) in the StepOnePlus instrument (Applied Biosystems, USA). QuantiTect Primer Assay for LAT1 and ASCT2 and for the endogenous control gene GAPDH (Quiagen, Germany) were used. The qPCR reaction was performed in 96-well PCR plates (Sarstedt, Germany) as follows: one cycle of 10 min at 95° C., followed by 40 PCR cycles at 95° C. 15 s and 60° C. 60 s. […] No template controls were always evaluated for each target gene. Quantification cycle (Cq) values were generated automatically by the StepOnePlus 2.3 Software and the ratio of the target gene was expressed in comparison to the endogenous control gene GAPDH.
Cells were plated in 24-well (Sarstedt, Germany) or 6-well plates (Sarstedt, Germany) or 96-well plates with black walls clear bottom (BD Biosciences, USA) and incubated 24 h under normal growth conditions. siRNAs against ASCT2 and transfection agent were diluted at desired concentrations and mixed according to transfection agent manufacturer's instructions. The mixture was incubated 20 min at RT for siRNA-complex formation, after which it was added to the cells and incubated at 37° C., 5% CO2. After the incubation period, serum and antibiotic was restored and cells were further incubated at normal conditions for the desired time points until evaluation of ASCT2 activity or ASCT2 expression (immunoblotting and RT-qPCR).

278/403/404 (sense UGCCACGGUCGCCUCUGAGAATT; antisense UUCUCAGAGGCGACCGUGGCATT; siRNA; sugars by position and backbone not given here; further chemistry not fully specified)
ASCT2 mRNA relative abundance (5 or 25 nM siRNA, at 24 h or 48 h, 0.5% Lipofectamine 2000, FIGS. 9B and 9C): decreased
ASCT2 mRNA relative abundance (72 h, 0.17% Lipofectamine 2000 or 0.1% Injectin, FIG. 20A): significantly decreased

From patent US10590422B2, “Anticancer therapeutic intervention” (PHYZAT BIOPHARMACEUTICALS, LDA., priority 2017, dated 2020)
